Results on 21 molecules are retold here after patent US6201006A, “Aromatic amidine derivatives useful as selective thrombin inhibitors” (C & C Research Laboratories, priority 1996, dated 2001).

What is called IC50 is the concentration that inhibits the measured activity by half. Low values mean higher potency, high ones lower potency.

Assay [1] relates to thrombin time (TT) in rat plasma. Kind of assay: Thrombin time (TT) in rat plasma after oral administration. Type of assay: in vivo, SD male rats. The note with it: TT after / TT before administration. On the procedure:
SD male rats weighing 220±20 g which had fasted overnight were used as experimental animals. Blood taken from the hearts of the experimental animals just before administration of the test compound and at 30, 60, 120 and 240 minutes after oral administration of the test compound was mixed with 0.108M sodium citrate in the ratio of 9:1. The mixtures thereby obtained were centrifuged at 15,000 rpm for 5 minutes at 4° C. to separate the plasma, which was stored at -20° C. until the TT was measured by means of the method described below.
200 μl of Owren's buffer was added to 50 μl of the plasma and 100 μl of the diluted plasma thereby obtained was injected into the vial of a coagulometer and then incubated for 2 minutes at 37° C. To each vial was added 100 μl of thrombin at a concentration of 20 U/ml, which had prewarmed at 37° C., to measure the time (TT) until clotting occurred. The ratio of the TT in rat plasma after administration of the test compound to the TT in rat plasma before administration of the test compound was calculated.

In another assay the target is T1, human thrombin (Homo sapiens, UniProt P00734).
T1 construct: purchased Sigma T-6759
Kind of assay: Inhibitory activity for thrombin (chromogenic substrate hydrolysis, 405 nm). The format is biochemical. The note with it: for IC50: human thrombin, 20 min, pH 8.0, N-benzoyl-Phe-Val-Arg-p-nitroanilide; for Selectivity (trypsin/thrombin): IC50 for trypsin divided by IC50 for thrombin. On the procedure: 20 μl of each compound of the present invention was dissolved in 50% methanol in various concentrations and then added to each well of a microplate, to each of which 160 μl of the reaction medium containing 125 mM NaCl, 50 mM Tris-HCl (pH 8.0) and 2 mM synthetic substrate (N-benzoyl-Phe-Val-Arg-p-nitroanilide, Sigma B-7632) were added. 20 μl of human thrombin solution (5 units/ml, Sigma T-6759, manufactured by Sigma Co.) containing 0.1% bovine serum albumin was added to each well to initiate the enzymatic reaction. After 20 minutes, the hydrolysis of substrate was determined by measuring the absorbance at 405 nm. […] The selectivity index was calculated by dividing the IC50 value for trypsin by the IC50 value for thrombin. The thrombin inhibitory activity and the trypsin inhibitory activity for the compound of the present invention are shown in the following Table 2.

A further assay deals with trypsin. Kind of assay: Inhibitory activity for trypsin. The format is biochemical.

Each structure is given as a SMILES string.

Consider `CCOC(=O)CCCN1CCC[C@@H]1C(=O)N1CCC[C@H]1CCc1cc2ccc(C(=N)N)cc2n1CC` [Compound 126, ethyl 4-[(R)-2-[[(S)-2-[2-(6-amidino-1-ethylindol-2-yl)ethyl]pyrrolidinyl]carbonyl]pyrrolidinyl]butanoate], for which, in assay [1] (50 mg/kg oral), the “Plasma TT ratio after administration to rat” value (“Plasma TT ratio” below) was determined as 5.40. In addition, the IC50 at human thrombin was determined as 40.5 nM.

For the molecule `CCn1c(CC[C@@H]2CCCN2C(=O)[C@H]2CCCN2CCCC(=O)O)cc2ccc(C(=N)N)cc21` [Compound 127, 4-[(R)-2-[[(S)-2-[2-(6-amidino-1-ethylindol-2-yl)ethyl]pyrrolidinyl]carbonyl]pyrrolidinyl]butanoic acid], the “Plasma TT ratio” value in assay [1] (50 mg/kg oral) worked out at 8.00. In addition, at human thrombin, half-maximal inhibition (IC50) was put at 21.7 nM.

For `CCn1c(CCC2CCCN2C(=O)C2CCCN2C(CCO)C(=O)O)cc2ccc(C(=N)N)cc21` [Compound 118, 2-[(R)-2-[[(S)-2-[2-(6-amidino-1-ethylindol-2-yl)ethyl]pyrrolidinyl]carbonyl]pyrrolidinyl]-4-hydroxy-butanoic acid], the “Plasma TT ratio” value in assay [1] (50 mg/kg oral) was 8.80. Further, on human thrombin, the “Selectivity (trypsin/thrombin)” value worked out at 14.5 and 12.3 nM corresponded to half-maximal inhibition (IC50).

Take `CCOC(=O)CN1CCC[C@@H]1C(=O)N1CCC[C@H]1CCc1cc2ccc(C(=N)NC(=O)OC(C)C)cc2n1CC` [Compound 270, ethyl 2-[(R)-2-[[(S)-2-[2-[1-ethyl-6-[imino[(methylethoxy)carbonylamino]methyl]indol-2-yl]ethyl]pyrrolidinyl]carbonyl]pyrrolidinyl]acetate]: the “Plasma TT ratio” value is reported as 1.46 in assay [1] (30 mg/kg oral) and 4.30 in assay [1] (50 mg/kg oral).

With `CCn1c(CC[C@@H]2CCCN2C(=O)[C@H]2CCCN2C(=O)CCCN)cc2ccc(C(=N)N)cc21` [Compound 166, 1-ethyl-2-[2-[(S)-1-[[(R)-1-(4-aminobutanoyl)pyrrolidin-2-yl]carbonyl]pyrrolidin-2-yl]ethyl]indole-6-carboxamidine], at human thrombin, the “Selectivity (trypsin/thrombin)” value is 18.6 and the IC50 was 33.1 nM. The same molecule yielded an IC50 in the assay with trypsin of 617 nM.

Turning to `CCOC(=O)CN[C@@H](C(=O)N1CCC[C@H]1CCc1cc2ccc(C(=N)N)cc2n1CC)c1ccccc1` [Compound 38, ethyl 2-[[(R)-2-[2-[(S)-2-[2-(6-amidino-1ethylindol-2-yl)ethyl]pyrrolidinyl]-2-oxo1-phenyl]ethyl]amino]acetate], at human thrombin, the “Selectivity (trypsin/thrombin)” value is listed as 24.2 and the IC50 came out at 7.59 nM. For the same molecule, in the assay on trypsin, the midpoint of inhibition, the IC50, lay at 184 nM.

Take `CCOC(=O)[C@@H](N)CC(=O)N1CCC[C@@H]1C(=O)N1CCC[C@H]1CCc1cc2ccc(C(=N)N)cc2n1CC` [Compound 159, ethyl 4-[(R)-2-[[(S)-2-[2-(6-amidino-1-ethylindol-2-yl)-ethyl]pyrrolidinyl]carbonyl]pyrrolidinyl]-(S)-2-amino-4-oxobutanoate]: the “Plasma TT ratio” value in assay [1] (50 mg/kg oral) was 6.23. Further, on human thrombin, the “Selectivity (trypsin/thrombin)” value came out at 20.7 and inhibition was half-maximal at 19.3 nM (IC50).

In the case of `CCn1c(CC[C@@H]2CCCN2C(=O)Cc2cccc(Cl)c2)cc2ccc(C(=N)N)cc21` [Compound 15], at human thrombin, the “Selectivity (trypsin/thrombin)” value worked out at 30.2 and 20.1 nM corresponded to half-maximal inhibition (IC50). Also, the IC50 in the assay with trypsin was 608 nM.

`CCOC(=O)C(C(=O)N1CCC[C@H]1CCc1cc2ccc(C(=N)N)cc2n1CC)C1CCCC1` (stereo partly drawn) [Compound 44, ethyl 3-[(S)-2-[2-(6-aminido-1-ethylindol-2-yl)ethyl]pyrrolidinyl]-2-cyclopentyl-3-oxopropanoate]: at human thrombin, the “Selectivity (trypsin/thrombin)” value turned out to be 33.9. The concentration for half-maximal inhibition (IC50) against human thrombin amounted to 9.23 nM; in the assay with trypsin, 313 nM.

Consider `CCn1c(CC[C@@H]2CCCN2C(=O)[C@H]2CCCN2C(=O)[C@@H](N)CC(N)=O)cc2ccc(C(=N)N)cc21` [Compound 148, 1-ethyl-2-[2-[(S)-1-[[(R)-1-((S)-2-amino-3-carbamoylpropanoyl)pyrrolidin-2-yl]carbonyl]pyrrolidin-2-yl]ethyl]indole-6-carboxamidine], for which, at human thrombin, the “Selectivity (trypsin/thrombin)” value is listed as 19.2. Besides, the IC50 against human thrombin was determined as 23 nM; with trypsin, 443 nM.

`CCn1c(CC[C@@H]2CCCN2C(=O)[C@H]2CCCN2C(=O)C[C@H](N)C(=O)O)cc2ccc(C(=N)N)cc21` [Compound 161, 4-[(R)-2-[[(S)-2-[2-(6-amidino-1-ethylindol-2-yl)ethyl]pyrrolidinyl]carbonyl]pyrrolidinyl]-(S)-2-amino-4-oxobutanoic acid]: in assay [1] (50 mg/kg oral), the “Plasma TT ratio” value is reported as 7.62. On human thrombin, the “Selectivity (trypsin/thrombin)” value was determined as 48.9 and the IC50 amounted to 5.21 nM.

On to `CCn1c(CC[C@@H]2CCCN2C(=O)[C@H]2CCCN2C(=O)C2CCCCN2)cc2ccc(C(=N)N)cc21` (stereo partly drawn) [Compound 167, 1-ethyl-2-[2-[(S)-1-[[(R)-1-[(2-piperidyl)carbonyl]pyrrolidin-2-yl]carbonyl]pyrrolidin-2-yl]ethyl]indole-6-carboxamidine], for which, at human thrombin, the “Selectivity (trypsin/thrombin)” value is recorded as 17.6 and the IC50 amounted to 18.3 nM. The IC50 in the assay on trypsin was found to be 322 nM.

As to `CCn1c(CC[C@@H]2CCCN2C(=O)[C@H]2CCCN2C(=O)[C@@H](N)CC(=O)O)cc2ccc(C(=N)N)cc21` [Compound 149, 4-[(R)-2-[[(S)-2-[2-(6-amidino-1-ethylindol-2-yl)ethyl]pyrrolidinyl]carbonyl]pyrrolidinyl]-(S)-3-amino-4-oxobutanoic acid], in assay [1] (50 mg/kg oral), the “Plasma TT ratio” value was found to be 9.24. Further, the IC50 at human thrombin was 10.4 nM.

Turning to `CCn1c(CC[C@@H]2CCCN2C(=O)[C@H]2CCCN2C(CCO)C(N)=O)cc2ccc(C(=N)N)cc21` (stereo partly drawn) [Compound 117, 1-ethyl-2-[2-[(S)-1-[[(R)-1-(1-carbamoyl-3-hydroxypropyl)pyrrolidin-2-yl]carbonyl]pyrrolidin-2-yl]-ethyl]indole-6-carboxamidine], at human thrombin, the “Selectivity (trypsin/thrombin)” value stood at 48.6 and the IC50 stood at 16.7 nM. The same molecule had an IC50 with trypsin of 811 nM.

For the molecule `CCn1c(CC[C@@H]2CCCN2C(=O)[C@H]2CCCN2C(=O)[C@H](C)NS(C)(=O)=O)cc2ccc(C(=N)N)cc21` [Compound 146, 1-ethyl-2-[2-[(S)-1-[[(R)-1-[(S)-2-(methanesulfonylamino)propanoyl]pyrrolidin-2-yl]carbonyl]pyrrolidin-2-yl]-ethyl]indole-6-carboxamidine], on human thrombin, the “Selectivity (trypsin/thrombin)” value worked out at 21.0. The IC50 was found to be 22.1 nM against human thrombin and 464 nM with trypsin.

For `CCn1c(CC[C@@H]2CCCN2Cc2c(C(N)=O)sc3ccccc23)cc2ccc(C(=N)N)cc21` [Compound 8], on human thrombin, the “Selectivity (trypsin/thrombin)” value amounted to 48.6. In addition, the IC50 stood at 9.47 nM against human thrombin and 460 nM in the assay on trypsin.

On to `CCn1c(CC[C@@H]2CCCN2C(=O)[C@H]2CCCN2C(=O)CC(C)O)cc2ccc(C(=N)N)cc21` (stereo partly drawn) [Compound 180, 1-ethyl-2-[2-[(S)-1-[[(R)-1-(3-hydroxybutanoyl)pyrrolidin-2-yl]carbonyl]pyrrolidin-2-yl]-ethyl]indole-6-carboxamidine], for which, at human thrombin, the “Selectivity (trypsin/thrombin)” value worked out at 31.8 and the IC50 came to 11 nM. The molecule further displayed an IC50 with trypsin of 351 nM.

Turning to `CCOC(=O)CN1CCCC1C(=O)N1CCCC1CCc1cc2ccc(C(=N)NC(=O)OC(Cl)(Cl)Cl)cc2n1CC` [Compound 272, ethyl 2-[(R)-2-[[(S)-2-[2-[6-[[(trichloromethoxy)carbonylamino]iminomethyl]-1-ethylindol-2-yl]ethyl]pyrrolidinyl]carbonyl]pyrrolidinyl]acetate], the “Plasma TT ratio” value in assay [1] (30 mg/kg oral) amounted to 1.76; in assay [1] (50 mg/kg oral), 2.84.

Take `CCn1c(CC[C@@H]2CCCN2C(=O)[C@H]2CCCN2CC(N)=O)cc2ccc(C(=N)N)cc21` [Compound 114, 1-ethyl-2-[2-[(S)-1-[[(R)-1-(carbamo-ylmethyl)pyrrolidin-2-yl]carbonyl]pyrrolidin-2-yl]ethyl]indole-6-carboxamidine]: the “Selectivity (trypsin/thrombin)” value at human thrombin was determined as 28.8. In addition, the IC50 was 17.4 nM against human thrombin and 500 nM with trypsin.

`CC(=O)N1CCC[C@@H]1C(=O)N1CCC[C@H]1CCc1cc2ccc(C(=N)N)cc2n1C` [Compound 170, 1-methyl-2-[2-[(S)-1-[((R)-1-acetylpyrrolidin-2-yl)-carbonyl]pyrrolidin-2-yl]ethyl]indole-6-carboxamidine]: at human thrombin, the “Selectivity (trypsin/thrombin)” value turned out to be 31.9 and the IC50 was 33.5 nM. In the assay on trypsin, this molecule yielded an IC50 of 1070 nM.

Take `CCOC(=O)CN1CCC[C@@H]1C(=O)N1CCC[C@H]1CCc1cc2ccc(C(=N)NC(=O)OCC)cc2n1CC` [Compound 267, ethyl 2-[(R)-2-[[(S)-2-[2-[1-ethyl-6-[(ethoxycarbonylamino)iminomethyl]indol-2-yl]ethyl]pyrrolidinyl]carbonyl]pyrrolidinyl]acetate]: in assay [1] (50 mg/kg oral), the “Plasma TT ratio” value worked out at 4.48.
